Measured values: patent publication USRE40387E1, “Pharmaceutical compositions, dosage forms and methods for oral administration of epothilones” (Bristol-Myers Squibb Company, priority 2001, dated 2008)

Test: Caco-2 cell permeability
Conditions: human, Caco-2
Protocol: The Pc of some model compounds, for which the bioavailability in humans is known, was also determined in the same experiment.

With `CC(=O)Nc1ccc(O)cc1` [acetaminophen, reference compound] as the molecule, how does the Papp read?
The Papp was greater than 20 ×10⁻⁶ cm/s.

Which Papp does the source give for `CC(C)Cc1ccc(C(C)C(=O)O)cc1` (stereo not drawn) [ibuprofen, reference compound] here?
The Papp was greater than 20 ×10⁻⁶ cm/s.

Which Papp does the source give for `O=C(O)c1ccccc1O` [salicylic acid, reference compound] here?
Its Papp is greater than 20 ×10⁻⁶ cm/s.
